According to patent publication US8067424B2, “Selective inhibitors for cyclin-dependent kinases” (Emory University, priority 2007, dated 2011):
Like-named read-outs stand apart in the source and are kept apart here.

Assays:
Format in all cases: biochemical
PLK1 = PLK1 (Homo sapiens, UniProt P53350); assay: Kinase screen: PLK1 assay
Protocol: (§1) Generally, the same procedure was used for all assays. Since the total assay volume was 25.5 microliters, 0.5 microliters of inhibitors at 51× assay concentration were added to the plates before any other addition.
(§2) The basic procedure was to add 0.5 microliters inhibitor/control in DMSO to plate. Fifteen microliters of enzyme/substrate/buffer mix were added and incubated for 5 min. Ten microliters MgATP at the relevant concentration were added and incubated for 30 min. The assay was stopped by adding 5 microliters of 3% orthophosphoric acid. The assay was transferred to a p81 filter plate and read in a scintillation counter of 30 sec/well. Note that this assay procedure was not followed for MKK1, which instead involved a two-step assay, and PKC alpha, which required the addition of lipid vesicles.
(50-1000 cpm/pmole) and incubated for 30 min at room temperature. Assays were stopped by addition of 5 μl of 0.5 M (3%) orthophosphoric acid and then harvested onto P81 Unifilter plates with a wash buffer of 50 mM orthophosphoric acid.

MST2 = target: T1, MST2 (Homo sapiens, UniProt Q13188); assay: Kinase screen: MST2 assay
T1 sequence (Q13188 1-491): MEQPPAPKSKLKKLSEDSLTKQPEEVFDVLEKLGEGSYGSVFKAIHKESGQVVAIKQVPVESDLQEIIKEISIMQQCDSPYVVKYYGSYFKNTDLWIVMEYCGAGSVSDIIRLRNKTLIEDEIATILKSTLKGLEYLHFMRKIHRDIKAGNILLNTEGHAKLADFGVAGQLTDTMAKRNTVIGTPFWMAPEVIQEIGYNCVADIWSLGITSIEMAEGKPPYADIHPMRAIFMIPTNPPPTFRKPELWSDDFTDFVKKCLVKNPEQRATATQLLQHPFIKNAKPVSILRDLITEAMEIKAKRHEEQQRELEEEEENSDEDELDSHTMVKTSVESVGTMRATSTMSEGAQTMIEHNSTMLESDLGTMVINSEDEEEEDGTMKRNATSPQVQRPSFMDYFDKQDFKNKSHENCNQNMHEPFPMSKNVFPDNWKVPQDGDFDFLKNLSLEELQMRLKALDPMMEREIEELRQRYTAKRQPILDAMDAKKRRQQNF
Protocol: as §1, §2
(§3) MST2 assay: MST2 (5-20 mU diluted in 50 mM Tris pH 7.5, 0.1 mM EGTA, 0.1% b-mercaptoethanol, 100 μM Vanadate) was assayed against MBP in a final volume of 25.5 μl containing 50 mM Tris pH 7.5, 0.05% b-mercaptoethanol, 0.33 mg/ml MBP, 10 mM magnesium acetate and 0.02 mM [33P-g-ATP] (50-1000 cpm/pmole) and incubated for 30 min at room temperature. Assays were stopped by addition of 5 μl of 0.5 M (3%) orthophosphoric acid and then harvested onto P81 Unifilter plates with a wash buffer of 50 mM orthophosphoric acid.

CDK4 = CDK4 (Homo sapiens, UniProt P11802); assay: CDK4 in vitro kinase inhibition (protocol similar to Example 14); details: for remaining activity at 0.1 µM: 100 nM, mean of three (standard deviation), read-out: CDK4 % remaining kinase activity after incubation with 100 nM of compound; for IC50: Table 7, mean of three experiments
Sequence of CDK4 (P11802 whole entry): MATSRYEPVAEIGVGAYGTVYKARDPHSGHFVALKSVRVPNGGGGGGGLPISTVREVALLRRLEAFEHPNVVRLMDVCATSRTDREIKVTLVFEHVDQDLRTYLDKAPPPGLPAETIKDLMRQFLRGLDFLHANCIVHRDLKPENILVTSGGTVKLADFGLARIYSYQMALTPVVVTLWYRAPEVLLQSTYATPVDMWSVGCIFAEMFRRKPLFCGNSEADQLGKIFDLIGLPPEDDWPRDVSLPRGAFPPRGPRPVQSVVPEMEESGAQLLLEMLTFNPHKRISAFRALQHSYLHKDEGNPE
Sequence of CDK4 (P24385 whole entry partner): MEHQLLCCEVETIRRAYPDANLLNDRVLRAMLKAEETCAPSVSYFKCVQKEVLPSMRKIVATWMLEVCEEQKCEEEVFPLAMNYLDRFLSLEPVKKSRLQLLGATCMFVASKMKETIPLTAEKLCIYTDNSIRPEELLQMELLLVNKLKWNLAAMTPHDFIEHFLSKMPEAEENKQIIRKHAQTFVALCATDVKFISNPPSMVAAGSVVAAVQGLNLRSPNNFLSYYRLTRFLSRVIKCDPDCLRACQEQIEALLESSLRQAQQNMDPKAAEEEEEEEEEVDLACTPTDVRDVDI

EPH-A2 = EPH-A2 (Homo sapiens, UniProt P29317); assay: Kinase screen: EPH-A2 assay; details: 10 micromolar compound; for remaining activity at 10 µM: read-out: mean activity remaining (as a percentage of the original activity), EPH A2
Sequence of EPH-A2 (P29317 24-976, species assumed): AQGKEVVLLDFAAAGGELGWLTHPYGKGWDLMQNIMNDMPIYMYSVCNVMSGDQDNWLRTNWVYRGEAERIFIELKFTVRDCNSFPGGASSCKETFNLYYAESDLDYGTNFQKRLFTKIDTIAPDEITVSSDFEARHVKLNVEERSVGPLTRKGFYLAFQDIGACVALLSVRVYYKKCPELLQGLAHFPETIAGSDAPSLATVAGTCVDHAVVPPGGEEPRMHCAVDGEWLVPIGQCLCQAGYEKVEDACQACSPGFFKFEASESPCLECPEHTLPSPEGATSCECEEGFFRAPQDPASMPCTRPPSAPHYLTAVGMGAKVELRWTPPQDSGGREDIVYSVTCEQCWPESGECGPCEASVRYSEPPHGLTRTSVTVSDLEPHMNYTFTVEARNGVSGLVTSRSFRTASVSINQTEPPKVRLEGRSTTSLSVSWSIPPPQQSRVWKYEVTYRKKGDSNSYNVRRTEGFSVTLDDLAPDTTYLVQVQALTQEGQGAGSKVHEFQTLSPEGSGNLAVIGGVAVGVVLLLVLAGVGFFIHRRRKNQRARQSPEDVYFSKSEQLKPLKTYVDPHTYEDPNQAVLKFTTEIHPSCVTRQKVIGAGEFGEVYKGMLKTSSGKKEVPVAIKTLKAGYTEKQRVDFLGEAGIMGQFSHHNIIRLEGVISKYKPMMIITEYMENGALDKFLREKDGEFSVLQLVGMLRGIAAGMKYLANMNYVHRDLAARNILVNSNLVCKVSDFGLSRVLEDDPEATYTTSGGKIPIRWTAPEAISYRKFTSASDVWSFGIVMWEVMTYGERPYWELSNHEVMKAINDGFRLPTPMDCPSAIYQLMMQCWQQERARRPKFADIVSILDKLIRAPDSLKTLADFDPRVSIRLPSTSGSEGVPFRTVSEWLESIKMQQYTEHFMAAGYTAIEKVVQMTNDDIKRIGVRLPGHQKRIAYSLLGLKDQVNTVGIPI
Protocol: as §1, §2
as §3, with “EPH-A2” for “MST2”, “1 mg/ml BSA)” for “0.1% b-mercaptoethanol, 100 μM Vanadate)”, “a substrate peptide (Poly Glut Tyr)” for “MBP”, “0.1” for “0.05% b-mercaptoethanol, 0.33”, “substrate peptide,” for “MBP,”, “0.05” for “0.02”

[1] = 10 micromolar compound, read-out: mean activity remaining (as a percentage of the original activity), PLK 1
[2] = 10 micromolar compound, read-out: mean activity remaining (as a percentage of the original activity), MST2

Sequence of PLK1 (P53350 whole entry, species assumed): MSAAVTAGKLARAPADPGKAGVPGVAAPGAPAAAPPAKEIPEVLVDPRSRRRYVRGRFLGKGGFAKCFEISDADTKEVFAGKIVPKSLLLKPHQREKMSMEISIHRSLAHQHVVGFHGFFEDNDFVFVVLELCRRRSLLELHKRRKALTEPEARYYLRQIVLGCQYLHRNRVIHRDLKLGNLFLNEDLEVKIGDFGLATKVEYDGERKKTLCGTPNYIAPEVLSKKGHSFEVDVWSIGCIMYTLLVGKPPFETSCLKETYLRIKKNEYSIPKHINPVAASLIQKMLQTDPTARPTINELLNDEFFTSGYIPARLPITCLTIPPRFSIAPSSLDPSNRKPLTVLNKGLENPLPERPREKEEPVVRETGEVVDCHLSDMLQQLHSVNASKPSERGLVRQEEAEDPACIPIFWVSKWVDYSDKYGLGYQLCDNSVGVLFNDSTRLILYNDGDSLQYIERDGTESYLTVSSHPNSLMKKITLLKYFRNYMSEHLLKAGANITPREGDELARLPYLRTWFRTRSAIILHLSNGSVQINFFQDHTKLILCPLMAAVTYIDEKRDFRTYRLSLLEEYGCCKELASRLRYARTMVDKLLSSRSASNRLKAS

Compound	remaining activity at 10 µM (PLK1; PLK1, 10 μM, read-out: Mean Remaining Enzyme Activity (%)) [%]	remaining activity at 10 µM (MST2; MST2, 10 μM, read-out: Mean Remaining Enzyme Activity (%)) [%]	remaining activity at 0.1 µM (CDK4) [%]	IC50 (CDK4) [nM]	remaining activity at 10 µM (PLK1; [1]) [%]	remaining activity at 10 µM (MST2; [2]) [%]	remaining activity at 10 µM (EPH-A2) [%]	mean activity remaining (as a percentage of the original activity), PLK 1 (PLK1; 10 micromolar compound) [%]	mean activity remaining (as a percentage of the original activity), MST2 (MST2; 10 micromolar compound) [%]	mean activity remaining (as a percentage of the original activity), EPH A2 (EPH-A2) [%]
CC(C)c1cnn2c(NCc3ccccc3)cc(NCCCCCCCN)nc12 [BS-181]	100	112	–	–	–	–	–	–	–	–
C=C[C@H](CO)Nc1cc(NCc2ccccc2)n2ncc(C(C)C)c2n1 [ICEC0065]	–	–	77	> 1000	56	87	109	–	–	–
CC[C@H](CO)Nc1cc(NCc2ccccc2)n2ncc(C(C)C)c2n1 [ICEC0067]	–	–	88	> 1000	64	89	101	–	–	–
CC(C)c1cnn2c(NCc3ccccc3)cc(N[C@@H](CO)[C@H](O)CO)nc12 [ICEC0318, (3S)-3-(7-(Benzylamino)-3-isopropylpyrazolo[1,5-a]pyrimidin-5-ylamino)butane-1,2,4-triol]	–	–	88	> 1000	68	86	116	–	–	–
CC(C)c1cnn2c(NCc3ccccc3F)cc(NCCCCCN)nc12 [ICEC-0232]	–	–	–	–	–	–	–	55	82	92
